{"source": "patent US20180140599A1", "about": "“PREVENTION AND/OR TREATMENT OF CONTRAST-INDUCED ACUTE KIDNEY INJURY” (Saghmos Therapeutics, Inc., priority 2016, published 2018)", "origin": "cited, not measured here", "tested_on": "patients with high serum creatinine levels undergoing coronary angiography/angioplasty", "conditions": "four published Phase 2 trials; compared with isotonic saline"}
{"smiles": "COc1ccc(CN2CCNCC2)c(OC)c1OC", "note": "[Trimetazidine]", "values": [{"measurement": "reducing the risk of contrast-induced nephropathy (CIN)", "result": "more effective than isotonic saline in reducing the risk of contrast-induced nephropathy (CIN)"}]}
